Results from patent publication US20100113268A1, “SYNERGISTIC ACTIVE COMPOUND COMBINATIONS” (priority 2006, published 2010).

System: Meloidogyne incognita
Assay: Meloidogyne incognita test (MELGIN), gall formation on lettuce roots in soil
Assay type: in vivo
Settings: single active compound, 100% = no galls, 0% = galls as untreated control
Description: Meloidogyne incognita Test (MELGIN)
To produce a suitable preparation of active compound, 1 part by weight of active compound is mixed with the stated amounts of solvent and emulsifier, and the concentrate is diluted with water to the desired concentration.
Vessels are filled with soil, solution of active compound, Meloidogyne incognita egg/larvae suspension and lettuce seeds. The lettuce seeds germinate and plants develop. On the roots, galls are formed.
After the desired period of time, the nematicidal action is determined in % by the formation of galls. 100% means that no galls have been found; 0% means that the number of galls on the treated plants corresponds to that of the untreated control.

Row | SMILES | Kill in % after 21 d (2 ppm) [%] | Kill in % after 21 d (0.125 ppm) [%]
1 | CN/C(=N\[N+](=O)[O-])NCc1cnc(Cl)s1 [Clothianidin] | 0 | 
2 | O=[N+]([O-])/N=C1\NCCN1Cc1ccc(Cl)nc1 [Imidacloprid] | 0 | 
3 | CNC(=O)O/N=C(\SC)C(=O)N(C)C [Oxamyl, oxamyl] |  | 24
